Results published in patent publication US20260207623A1, “USE OF ESTETROL IN HEPATICALLY IMPAIRED PATIENTS” (ESTETRA SRL, priority 2022, published 2026).
Read-outs that look alike come from different tables or passages of the source.

Test: Phase 1 pharmacokinetic study of a single oral dose of 20 mg E4 monohydrate in female subjects with normal hepatic function and mild, moderate or severe hepatic impairment (plasma, LC-MS/MS, non-compartmental analysis)
Format: in vivo, human
Details: for AUC0-24 h, GM / CL/F, GM / CL/F, Mean / CL/F, Median / Cmax, Mean / λz, GM / λz, Mean / λz, Median / Tmax / AUC(0-inf) / Cmax / AUC(0-t) / half-life / Vd/F: plasma; for Tmax / AUC(0-inf) / Cmax / AUC(0-t) / half-life / Vd/F: female, human, 20 mg
Experimental: This was a Phase 1, multi-centre, open-label, PK, and safety study of a single oral dose of 20 mg E4 monohydrate in female subjects with normal hepatic function (Group 1), mild hepatic impairment (Group 2), moderate hepatic impairment (Group 3), and severe hepatic impairment (Group 4), as defined using the Child-Pugh classification at Screening.
The study consisted of an eligibility Screening period (within 28 days prior to study drug administration), an Assessment Period with in-house period and outpatient visits (including a single oral dose of 20 mg E4 on Day 1), and a follow up visit. All subjects were confined to the study site from Day-1 (the day before dosing) until Day 4 and returned to the site every day from Day 5 to Day 9. Alternatively, the subjects could stay for a prolonged in-house period in agreement with the Investigator. The follow-up visit occurred on Day 14 (+2 days).
All subjects arrived at the study site in the morning of Day-1 in a fasted state (no food for at least 8 h, water was allowed) to have the scheduled assessments performed in order to confirm eligibility as outlined in the inclusion and exclusion criteria (Section 2.3.1 and Section 2.3.2, respectively). In the morning of Day 1 following an overnight fast, the subjects received oral dosing of 20 mg E4 monohydrate and remained at the site. Study-related assessments were performed at time points indicated in the Schedule of Assessments in Table 2.
Serial blood sampling for PK assessments started on Day 1 and proceeded until Day 9 according to the Pharmacokinetic Sampling Schedule presented in Table 3.
Each enrolled subject was to receive a single oral dose of 20 mg of E4 (estetrol) as monohydrate as a film-coated tablet.
Study drug was administered to subjects in the morning after an overnight fast of at least 8 h.
Calculation of non-compartmental PK parameters were done using WinNonlin™ Professional, Version 6.3 or higher.
The primary PK parameters to be analyzed for E4 in plasma: • Cmax=maximum observed plasma concentration • AUCinf=area under the concentration-time curve (AUC) from time zero extrapolated to infinity
The analysis of E4 and the metabolites E4-3-glucuronide and E4-16-glucuronide in plasma samples were performed at the Bioanalytical Laboratory of the CRO using a validated liquid chromatography-mass spectrometry/mass spectrometry method.
Individual and mean plasma concentrations at each sampling time point for E4 are presented by listings and descriptive summary statistics including means, geometric means (GMs), medians, ranges, standard deviations (SD) and coefficients of variation (CV). Individual, mean and/or median concentrations per hepatic function group were plotted versus time on semilogarithmic scales.
PK parameters were calculated by non-compartmental analysis. PK parameters were analysed using descriptive statistics and are presented by hepatic function group.
Analysis of variance (ANOVA) were used to compare primary PK parameters of E4 (Cmax and AUCinf) between subjects with hepatic impairment and subjects with normal hepatic function in an exploratory approach, using the log-transformed value of each PK parameter as dependent variable, and the hepatic impairment group (normal, mild, moderate, and severe) as a fixed classification factor. Geometric least squares means were used to calculate the ratios of primary PK parameters for each hepatic impairment group to those in the control group, along with 90% confidence intervals (CIs).
Additionally, the impact of age and BMI on the effect of hepatic impairment were evaluated using an ANOVA model similar as the ANOVA model described above, but with the interaction between each factor and the hepatic impairment group included as an additional factor.
The relationship between log-transformed PK parameters (Cmax and AUCinf) and continuous parameters (albumin, total bilirubin, and prothrombin time) used for the Child-Pugh score was explored by a linear regression approach. […]

[1] = Mild hepatic impairment, single oral dose 20 mg E4 monohydrate
[2] = Moderate hepatic impairment, single oral dose 20 mg E4 monohydrate
[3] = Moderate vs. Normal, one-way ANOVA
[4] = Normal hepatic function, single oral dose 20 mg E4 monohydrate
[5] = Severe hepatic impairment, single oral dose 20 mg E4 monohydrate
[6] = Severe vs. Normal, one-way ANOVA

C[C@]12CC[C@@H]3c4ccc(O)cc4CC[C@H]3[C@@H]1[C@@H](O)[C@@H](O)[C@@H]2O [E4, 1,3,5 (10)-estratrien-3,15alpha, 16alpha, 17beta-tetrol]
AUC0-24 h, GM [1]: 69.76 ng·h/mL
CL/F, GM [1]: 171.23 L/h
CL/F, Mean [1]: 177.13 L/h
CL/F, Median [1]: 188.75 L/h
Cmax, Mean [1]: 38.363 ng/mL
λz, GM [1]: 0.0300 h⁻¹
λz, Mean [1]: 0.0373 h⁻¹
λz, Median [1]: 0.0428 h⁻¹
AUCinf, Geometric Mean Ratio (Test/Reference) Estimate (Mild vs. Normal, one-way ANOVA): 1.120
Cmax, Geometric Mean Ratio (Test/Reference) Estimate (Mild vs. Normal, one-way ANOVA): 1.661
AUC0-24 h, GM [2]: 88.75 ng·h/mL
CL/F, GM [2]: 185.80 L/h
CL/F, Mean [2]: 214.77 L/h
CL/F, Median [2]: 175.13 L/h
Cmax, Mean [2]: 52.410 ng/mL
λz, GM [2]: 0.0500 h⁻¹
λz, Mean [2]: 0.0520 h⁻¹
λz, Median [2]: 0.0493 h⁻¹
AUCinf, Geometric Mean Ratio (Test/Reference) Estimate [3]: 1.032
Cmax, Geometric Mean Ratio (Test/Reference) Estimate [3]: 1.896
AUC0-24 h, GM [4]: 60.41 ng·h/mL
CL/F, GM [4]: 191.77 L/h
CL/F, Mean [4]: 200.09 L/h
CL/F, Median [4]: 177.60 L/h
Cmax, Mean [4]: 23.878 ng/mL
λz, GM [4]: 0.0300 h⁻¹
λz, Mean [4]: 0.0329 h⁻¹
λz, Median [4]: 0.0307 h⁻¹
AUC0-24 h, GM [5]: 179.05 ng·h/mL
CL/F, GM [5]: 101.25 L/h
CL/F, Mean [5]: 104.83 L/h
CL/F, Median [5]: 111.40 L/h
Cmax, Mean [5]: 117.025 ng/mL
λz, GM [5]: 0.0800 h⁻¹
λz, Mean [5]: 0.0905 h⁻¹
λz, Median [5]: 0.1108 h⁻¹
AUCinf, Geometric Mean Ratio (Test/Reference) Estimate [6]: 1.894
Cmax, Geometric Mean Ratio (Test/Reference) Estimate [6]: 5.359
plasma levels at 24 h after administration (comparison among hepatic function groups): in the same range among the different hepatic function groups
Tmax (oral, across all hepatic function groups, read-out: Tmax, range): 0.23 to 1.92 h
Tmax (oral, all hepatic function groups, read-out: Median Tmax, range over the hepatic function groups): 0.25 to 0.5 h
AUC(0-inf) (po, Mild (Test), one-way ANOVA, single oral dose 20 mg, read-out: AUCinf, Geometric LS Mean): 117 ng·h/mL
Cmax (po, Mild (Test), one-way ANOVA, single oral dose 20 mg, read-out: Cmax, Geometric LS Mean): 34.5 ng/mL
AUC(0-t) (po, Mild hepatic impairment, single oral dose 20 mg E4 monohydrate, read-out: AUC0-24 h, GM): 69.8 ng·h/mL
AUC(0-t) (po, Mild hepatic impairment, single oral dose 20 mg E4 monohydrate, read-out: AUC0-24 h, Mean): 72.9 ng·h/mL
AUC(0-t) (po, Mild hepatic impairment, single oral dose 20 mg E4 monohydrate, read-out: AUC0-24 h, Median): 66.3 ng·h/mL
AUC(0-inf) (po, Mild hepatic impairment, single oral dose 20 mg E4 monohydrate, read-out: AUCinf, GM): 117 ng·h/mL
AUC(0-inf) (po, Mild hepatic impairment, single oral dose 20 mg E4 monohydrate, read-out: AUCinf, Mean): 122 ng·h/mL
AUC(0-inf) (po, Mild hepatic impairment, single oral dose 20 mg E4 monohydrate, read-out: AUCinf, Median): 106 ng·h/mL
AUC(0-t) (po, Mild hepatic impairment, single oral dose 20 mg E4 monohydrate, read-out: AUClast, GM): 116 ng·h/mL
AUC(0-t) (po, Mild hepatic impairment, single oral dose 20 mg E4 monohydrate, read-out: AUClast, Mean): 121 ng·h/mL
AUC(0-t) (po, Mild hepatic impairment, single oral dose 20 mg E4 monohydrate, read-out: AUClast, Median): 105 ng·h/mL
Cmax (po, Mild hepatic impairment, single oral dose 20 mg E4 monohydrate, read-out: Cmax, GM): 34.5 ng/mL
Cmax (po, Mild hepatic impairment, single oral dose 20 mg E4 monohydrate, read-out: Cmax, Mean): ~38 ng/mL
Cmax (po, Mild hepatic impairment, single oral dose 20 mg E4 monohydrate, read-out: Cmax, Median): 34.9 ng/mL
half-life (po, Mild hepatic impairment, single oral dose 20 mg E4 monohydrate, read-out: T1/2, GM (converted)): 20.1 h
half-life (po, Mild hepatic impairment, single oral dose 20 mg E4 monohydrate, read-out: T1/2, Mean (converted)): 22.1 h
half-life (po, Mild hepatic impairment, single oral dose 20 mg E4 monohydrate, read-out: T1/2, Median (converted)): 16.2 h
Tmax (po, Mild hepatic impairment, single oral dose 20 mg E4 monohydrate, read-out: Tmax, Median): 0.375 h
Vd/F (po, Mild hepatic impairment, single oral dose 20 mg E4 monohydrate, read-out: Vz/F, GM): 4960 L
Vd/F (po, Mild hepatic impairment, single oral dose 20 mg E4 monohydrate, read-out: Vz/F, Mean): 5830 L
Vd/F (po, Mild hepatic impairment, single oral dose 20 mg E4 monohydrate, read-out: Vz/F, Median): 4800 L
AUC(0-inf) (po, Moderate (Test), one-way ANOVA, single oral dose 20 mg, read-out: AUCinf, Geometric LS Mean): 108 ng·h/mL
Cmax (po, Moderate (Test), one-way ANOVA, single oral dose 20 mg, read-out: Cmax, Geometric LS Mean): 39.4 ng/mL
AUC(0-t) (po, Moderate hepatic impairment, single oral dose 20 mg E4 monohydrate, read-out: AUC0-24 h, GM): 88.8 ng·h/mL
AUC(0-t) (po, Moderate hepatic impairment, single oral dose 20 mg E4 monohydrate, read-out: AUC0-24 h, Mean): 103 ng·h/mL
AUC(0-t) (po, Moderate hepatic impairment, single oral dose 20 mg E4 monohydrate, read-out: AUC0-24 h, Median): 92.6 ng·h/mL
AUC(0-inf) (po, Moderate hepatic impairment, single oral dose 20 mg E4 monohydrate, read-out: AUCinf, GM): 108 ng·h/mL
AUC(0-inf) (po, Moderate hepatic impairment, single oral dose 20 mg E4 monohydrate, read-out: AUCinf, Mean): 123 ng·h/mL
AUC(0-inf) (po, Moderate hepatic impairment, single oral dose 20 mg E4 monohydrate, read-out: AUCinf, Median): 115 ng·h/mL
AUC(0-t) (po, Moderate hepatic impairment, single oral dose 20 mg E4 monohydrate, read-out: AUClast, GM): 107 ng·h/mL
